Reference: patent publication US12384789B2, “Compounds for treating Huntington's disease” (PTC Therapeutics, Inc., priority 2017, dated 2025)

System: Endogenous Huntingtin Protein
Test: Endogenous Huntingtin Protein Assay (Meso Scale Discovery ELISA-based electrochemiluminescence)
Assay type: cell-based
Conditions: MSD electrochemiluminescence, Table 1
In short: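 MSD electrochemiluminescence sandwich ELISA: MW1 (expanded polyQ) or MAB2166 capture antibody at 1 μg/mL, samples incubated overnight at 4° C. Detection with rabbit monoclonal #5656S then SULFO-TAG anti-rabbit antibody, each 0.25 μg/mL for 1 h at room temperature.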

IC50	Structure (SMILES)
≤ 100 nM	Cc1cn2cc(-c3cc4c(F)cc(C5CCNCC5)cc4nn3)cc(F)c2n1 [Compound 128, 5-fluoro-3-(8-fluoro-2-methylimidazo[1,2-a]pyridin-6-yl)-7-(piperidin-4-yl)cinnoline]
≤ 100 nM	Cc1cn2nc(-c3cc(F)c4cc(C5CCNCC5)nnc4c3)cc(OCCn3cccn3)c2n1 [Compound 140, 5-fluoro-7-{2-methyl-8-[2-(1H-pyrazol-1-yl)ethoxy]imidazo[1,2-b]pyridazin-6-yl}-3-(piperidin-4-yl)cinnoline]
≤ 100 nM	COc1cc(-c2cc(F)c3nc(C4CCNCC4)ccc3c2)nn2cc(C)nc12 [Compound 51, 8-fluoro-6-(8-methoxy-2-methylimidazo[1,2-b]pyridazin-6-yl)-2-(piperidin-4-yl)quinoline]
≤ 100 nM	CCN1CCC(c2cc3c(F)cc(-c4cc(OC)c5nn(C)cc5n4)cc3nn2)CC1 [Compound 173, 3-(1-ethylpiperidin-4-yl)-5-fluoro-7-(7-methoxy-2-methyl-2H-pyrazolo[4,3-b]pyridin-5-yl)cinnoline]
100 to 500 nM	Cc1cn2nc(-c3cc(F)c4cc(C5CCN(CC(F)F)CC5)nnc4c3)cc(C)c2n1 [Compound 98, 3-[1-(2,2-difluoroethyl)piperidin-4-yl]-7-(2,8-dimethylimidazo[1,2-b]pyridazin-6-yl)-5-fluorocinnoline]
≤ 100 nM	Cc1cn2nc(-c3cc(F)c4cc(C5CCNCC5)nnc4c3)cc(OCCCN(C)C)c2n1 [Compound 139, 3-({6-[5-fluoro-3-(piperidin-4-yl)cinnolin-7-yl]-2-methylimidazo[1,2-b]pyridazin-8-yl}oxy)-N,N-dimethylpropan-1-amine]
100 to 500 nM	Cc1cn2cc(-c3cc(F)c4cc(C5CCNCC5)nnc4c3)nc2c(C)n1 [Compound 116, 7-(6,8-dimethylimidazo[1,2-a]pyrazin-2-yl)-5-fluoro-3-(piperidin-4-yl)cinnoline]
1000 to 3000 nM	CCN1CCC(c2ccc3cc(-c4ccc5nn(C)cc5c4)ccc3n2)CC1 [Compound 9, 2-(1-ethylpiperidin-4-yl)-6-(2-methyl-2H-indazol-5-yl)quinoline]
≤ 100 nM	Cc1cn2nc(-c3cc4c(F)cc(C5CCNCC5)cc4nn3)cc(C)c2n1 [Compound 185, 3-(2,8-dimethylimidazo[1,2-b]pyridazin-6-yl)-5-fluoro-7-(piperidin-4-yl)cinnoline]
≤ 100 nM	CCN1CCC(c2cc3c(F)cc(-c4cc(C)c5nc(C)sc5n4)cc3nn2)CC1 [Compound 135, 7-(2,7-dimethyl[1,3]thiazolo[5,4-b]pyridin-5-yl)-3-(1-ethylpiperidin-4-yl)-5-fluorocinnoline]
100 to 500 nM	Cc1cc2oc(-c3cc(F)c4cc(C5CCN(CCO)CC5)nnc4c3)nc2c(C)n1 [Compound 213, 2-{4-[7-(4,6-dimethyl[1,3]oxazolo[4,5-c]pyridin-2-yl)-5-fluorocinnolin-3-yl]piperidin-1-yl}ethan-1-ol]
1000 to 3000 nM	Cc1cn2cc(-c3nnc4cc(C5CCNCC5)ccc4n3)cc2c(C)n1 [Compound 28, 3-(1,3-dimethylpyrrolo[1,2-a]pyrazin-7-yl)-7-(piperidin-4-yl)-1,2,4-benzotriazine]
≤ 100 nM	Cn1cc2cc(-c3nnc4cc(C5CCNCC5)ccc4n3)cc(F)c2n1 [Compound 25, 3-(7-fluoro-2-methyl-2H-indazol-5-yl)-7-(piperidin-4-yl)-1,2,4-benzotriazine]
≤ 100 nM	Cc1cn2nc(-c3cc(F)c4cc(C5CCCN(C)CC5)nnc4c3)cc(C)c2n1 (stereo not drawn) [Compound 188, 7-(2,8-dimethylimidazo[1,2-b]pyridazin-6-yl)-5-fluoro-3-(1-methylazepan-4-yl)cinnoline]
≤ 100 nM	CCN1CCC(c2cc3c(F)cc(-c4cc(CO)c5nc(C)cn5n4)cc3nn2)CC1 [Compound 113, {6-[3-(1-ethylpiperidin-4-yl)-5-fluorocinnolin-7-yl]-2-methylimidazo[1,2-b]pyridazin-8-yl}methanol]
≤ 100 nM	CCN1CCC(c2cc(F)c3cc(-c4cc(C)c5nc(C)cn5n4)nnc3c2)CC1 [Compound 186, 3-(2,8-dimethylimidazo[1,2-b]pyridazin-6-yl)-7-(1-ethylpiperidin-4-yl)-5-fluorocinnoline]
≤ 100 nM	Cc1cn2cc(-c3nnc4cc(C5CCNCC5)ccc4n3)cc(F)c2n1 [Compound 43, 3-(8-fluoro-2-methylimidazo[1,2-a]pyridin-6-yl)-7-(piperidin-4-yl)-1,2,4-benzotriazine]
≤ 100 nM	Cc1cn2nc(-c3cc(F)c4cc(C5CCN(CCO)CC5)nnc4c3)cc(C#N)c2n1 [Compound 178, 6-{5-fluoro-3-[1-(2-hydroxyethyl)piperidin-4-yl]cinnolin-7-yl}-2-methylimidazo[1,2-b]pyridazine-8-carbonitrile]
≤ 100 nM	Cc1cn2cc(-c3cc(F)c4nc(C5CCNCC5)nnc4c3)cc2c(C)n1 [Compound 64, 7-(1,3-dimethylpyrrolo[1,2-a]pyrazin-7-yl)-5-fluoro-3-(piperidin-4-yl)-1,2,4-benzotriazine]

IC50	Structure (SMILES)
≤ 100 nM	Cc1cn2nc(-c3ccc4nc(C5CCNCC5)ccc4c3)cc(C)c2n1 [Compound 19, 6-(2,8-dimethylimidazo[1,2-b]pyridazin-6-yl)-2-(piperidin-4-yl)quinoline]
≤ 100 nM	Cc1cn2nc(-c3cc(F)c4cc(C5CCCN(CCF)CC5)nnc4c3)cc(C)c2n1 (stereo not drawn) [Compound 199, 7-(2,8-dimethylimidazo[1,2-b]pyridazin-6-yl)-5-fluoro-3-[1-(2-fluoroethyl)azepan-4-yl]cinnoline]
≤ 100 nM	Cn1cc2cc(-c3cc(F)c4nc(C5CCNCC5)nnc4c3)cc(F)c2n1 [Compound 32, 5-fluoro-7-(7-fluoro-2-methyl-2H-indazol-5-yl)-3-(piperidin-4-yl)-1,2,4-benzotriazine]
100 to 500 nM	Cc1cn2cc(-c3cc(F)c4nc(C5CCNCC5)nnc4c3)cc(C)c2n1 [Compound 60, 7-(2,8-dimethylimidazo[1,2-a]pyridin-6-yl)-5-fluoro-3-(piperidin-4-yl)-1,2,4-benzotriazine]
100 to 500 nM	Cc1cc2cc(-c3cc(F)c4cc(C5CCNCC5)nnc4c3)[nH]c2c(C)n1 [Compound 191, 7-(5,7-dimethyl-1H-pyrrolo[2,3-c]pyridin-2-yl)-5-fluoro-3-(piperidin-4-yl)cinnoline]
≤ 100 nM	Cc1cn2nc(-c3cc(F)c4cc(C5CCN(C)CC5)nnc4c3)cc(C#N)c2n1 [Compound 176, 6-[5-fluoro-3-(1-methylpiperidin-4-yl)cinnolin-7-yl]-2-methylimidazo[1,2-b]pyridazine-8-carbonitrile]
100 to 500 nM	Cc1cc(-c2ccc3cc(C4CCNCC4)ncc3c2)cc2cn(C)nc12 [Compound 30, 7-(2,7-dimethyl-2H-indazol-5-yl)-3-(piperidin-4-yl)isoquinoline]
≤ 100 nM	Cc1cn2nc(-c3cc(F)c4cc(N5CCNCC5)nnc4c3)cc(C)c2n1 [Compound 80, 7-(2,8-dimethylimidazo[1,2-b]pyridazin-6-yl)-5-fluoro-3-(piperazin-1-yl)cinnoline]
≤ 100 nM	Cc1cc(-c2cc3c(F)cc(C4CCNCC4)cc3nn2)cc2cn(C)nc12 [Compound 177, 3-(2,7-dimethyl-2H-indazol-5-yl)-5-fluoro-7-(piperidin-4-yl)cinnoline]
500 to 1000 nM	Cn1cc2cc(-c3cc(F)c4cc(C5CCNCC5)nnc4c3)c(F)cc2n1 [Compound 97, 5-fluoro-7-(6-fluoro-2-methyl-2H-indazol-5-yl)-3-(piperidin-4-yl)cinnoline]
≤ 100 nM	Cn1cc2cc(-c3ccc4cc(C5CCNCC5)cc(F)c4n3)cc(F)c2n1 [Compound 192, 8-fluoro-2-(7-fluoro-2-methyl-2H-indazol-5-yl)-6-(piperidin-4-yl)quinoline]
≤ 100 nM	Cc1cn2nc(-c3cc(F)c4cc(C5CCNCC5)nnc4c3)cc(C(C)C)c2n1 [Compound 211, 5-fluoro-7-[2-methyl-8-(propan-2-yl)imidazo[1,2-b]pyridazin-6-yl]-3-(piperidin-4-yl)cinnoline]
≤ 100 nM	CCN1CCC(c2ccc3cc(-c4cc(C)c5nc(C)cn5n4)cc(F)c3n2)CC1 [Compound 48, 6-(2,8-dimethylimidazo[1,2-b]pyridazin-6-yl)-2-(1-ethylpiperidin-4-yl)-8-fluoroquinoline]
≤ 100 nM	Cc1cn2nc(-c3cc(F)c4cc(N5CCC(N(C)C)C5)nnc4c3)cc(C)c2n1 (stereo not drawn) [Compound 86, 1-[7-(2,8-dimethylimidazo[1,2-b]pyridazin-6-yl)-5-fluorocinnolin-3-yl]-N,N-dimethylpyrrolidin-3-amine]
≤ 100 nM	Cc1cn2nc(-c3cc(F)c4cc(C5CCNC5)nnc4c3)cc(C)c2n1 (stereo not drawn) [Compound 143, 7-(2,8-dimethylimidazo[1,2-b]pyridazin-6-yl)-5-fluoro-3-(pyrrolidin-3-yl)cinnoline]
100 to 500 nM	Cn1cc2cc(-c3ncc4cc(C5CCNCC5)ccc4n3)ccc2n1 [Compound 10, 2-(2-methyl-2H-indazol-5-yl)-6-(piperidin-4-yl)quinazoline]
≤ 100 nM	Cc1cn2nc(-c3cc(F)c4cc(C5CCN(C)CC5)nnc4c3)cc(C)c2n1 [Compound 79, 7-(2,8-dimethylimidazo[1,2-b]pyridazin-6-yl)-5-fluoro-3-(1-methylpiperidin-4-yl)cinnoline]
≤ 100 nM	Cc1cn2nc(-c3cc(F)c4cc(C5CCN(CCF)CC5)nnc4c3)cc(C#N)c2n1 [Compound 179, 6-{5-fluoro-3-[1-(2-fluoroethyl)piperidin-4-yl]cinnolin-7-yl}-2-methylimidazo[1,2-b]pyridazine-8-carbonitrile]

Structure (SMILES)	IC50
Cc1cn2nc(-c3cc4c(F)cc(C5=CCNCC5)cc4nn3)cc(C)c2n1 [Compound 167, 3-(2,8-dimethylimidazo[1,2-b]pyridazin-6-yl)-5-fluoro-7-(1,2,3,6-tetrahydropyridin-4-yl)cinnoline]	≤ 100 nM
CCN1CC=C(c2cc(F)c3nc(-c4cc(F)c5nn(C)cc5c4)ncc3c2)CC1 [Compound 201, 6-(1-ethyl-1,2,3,6-tetrahydropyridin-4-yl)-8-fluoro-2-(7-fluoro-2-methyl-2H-indazol-5-yl)quinazoline]	≤ 100 nM
